Assay results taken from patent US20210115018A1, “PIPERIDINE COMPOUNDS AS COVALENT MENIN INHIBITORS” (THE REGENTS OF THE UNIVERSITY OF MICHIGAN, priority 2018, published 2021).

Tests used:
menin protein = biological target: T1, menin protein (Homo sapiens, UniProt O00255); experiment: Fluorescence polarization (FP) competitive binding assay, menin binding affinity; conditions: FP competition with FAM-MM2 probe 2 nM, menin 4 nM, 30 minutes room temperature
T1 sequence (O00255 1-610): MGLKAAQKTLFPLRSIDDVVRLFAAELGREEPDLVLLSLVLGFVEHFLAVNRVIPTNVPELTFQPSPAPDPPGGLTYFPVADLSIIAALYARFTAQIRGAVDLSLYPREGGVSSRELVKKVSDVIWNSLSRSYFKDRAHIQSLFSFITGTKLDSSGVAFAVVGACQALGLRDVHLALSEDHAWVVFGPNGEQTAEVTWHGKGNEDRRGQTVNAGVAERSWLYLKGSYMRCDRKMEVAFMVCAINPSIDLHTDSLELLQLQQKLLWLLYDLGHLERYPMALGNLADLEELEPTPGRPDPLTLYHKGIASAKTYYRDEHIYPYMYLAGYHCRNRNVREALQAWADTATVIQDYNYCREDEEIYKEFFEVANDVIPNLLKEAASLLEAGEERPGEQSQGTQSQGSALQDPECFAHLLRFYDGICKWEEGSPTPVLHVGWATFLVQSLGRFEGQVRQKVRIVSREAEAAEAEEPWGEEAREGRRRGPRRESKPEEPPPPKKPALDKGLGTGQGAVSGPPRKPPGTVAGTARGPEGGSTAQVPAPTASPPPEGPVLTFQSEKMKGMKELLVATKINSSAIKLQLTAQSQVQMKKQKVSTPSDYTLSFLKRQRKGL
In short: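 Competitive FP with FAM-labeled MLL1 peptide probe FAM-MM2 (2 nM) and menin (4 nM) in PBS, 0.02% bovine γ-globulin, 4% DMSO, 0.01% Triton X-100. After 30 min at room temperature, mP read at 485/530 nm; IC50 from nonlinear regression against probe-only and complex-only controls.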

MOLM13 = experiment: 7-day proliferation assay (WST-8), cell growth inhibition; type: cell-based; conditions: Homo sapiens, MOLM-13, 168 h, MOLM13 cells, 7 days
In short: (§1)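 Cells seeded at 2,000-3,000/well were exposed to serially diluted compound for 7 days at 37° C., 5% CO2. Viability was read by WST-8 absorbance at 450 nm after 1-2 h color development; readings normalized to DMSO-treated cells, IC50 by four-parameter nonlinear regression.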

MV4-11 = experiment: as above; type: cell-based; conditions: Homo sapiens, MV4-11, 168 h, MV4-11 cells, 7 days
In short: as §1

IC50 (menin protein) | IC50 (MOLM13) | IC50 (MV4-11) | Structure (SMILES)
4 nM | < 50 nM | < 50 nM | C=CC(=O)N1CCCC[C@@H](S(=O)(=O)c2ccc(N3CC(C)(CN4CCC([C@@](CN5CCC5)(c5cccc(F)c5)[C@H]5CCC[C@@H]5NC(=O)OC)CC4)C3)cc2)C1 [compound 222]
4 nM | < 50 nM | < 50 nM | C=CC(=O)N1CCCC[C@@H](S(=O)(=O)c2ccc(N3CC(CN4CCC([C@@](CN5CCC5)(c5cccc(F)c5)[C@H]5CCC[C@@H]5NC(=O)OC)CC4)C3)c(F)c2)C1 [compound 223]
4 nM | < 50 nM | < 50 nM | C=CC(=O)N1CCCC[C@@H](S(=O)(=O)c2ccc(N3CC(F)(CN4CCC([C@@](CN5CCC5)(c5cccc(F)c5)[C@H]5CCC[C@@H]5NC(=O)OC)CC4)C3)c(F)c2)C1 [compound 224]
7 nM | < 100 nM | < 100 nM | C=CC(=O)N1CCCC[C@@H](S(=O)(=O)c2ccc(N3CC(C)(CN4CCC([C@@](CN5CCC5)(c5cccc(F)c5)[C@H]5CCC[C@@H]5NC(=O)OC)CC4)C3)c(F)c2)C1 [compound 225]
3 nM | < 50 nM | < 50 nM | C=CC(=O)N1CCCC[C@@H](S(=O)(=O)c2ccc(N3CC(CN4CCC([C@@](CN5CCC5)(c5cccc(F)c5)[C@H]5CCC[C@@H]5NC(=O)OC)CC4)(OC)C3)cc2)C1 [compound 226]
7 nM | < 50 nM | < 50 nM | C=CC(=O)N1CCCC[C@@H](S(=O)(=O)c2ccc(N3CC(CN4CCC([C@@](CN5CCC5)(c5cccc(F)c5)[C@H]5CCC[C@@H]5NC(=O)OC)CC4)(OC)C3)c(F)c2)C1 [compound 227]
7 nM | < 500 nM | < 50 nM | C=CC(=O)N1CCCC[C@@H](S(=O)(=O)c2ccc(N3CC(O)(CN4CCC([C@@](CN5CCC5)(c5cccc(F)c5)[C@H]5CCC[C@@H]5NC(=O)OC)CC4)C3)cc2)C1 [compound 228]
8 nM | < 500 nM | < 100 nM | C=CC(=O)N1CCCC[C@@H](S(=O)(=O)c2ccc(N3CC(O)(CN4CCC([C@@](CN5CCC5)(c5cccc(F)c5)[C@H]5CCC[C@@H]5NC(=O)OC)CC4)C3)c(F)c2)C1 [compound 229]

Continued, molecule first:

Structure (SMILES) | IC50 (menin protein) | IC50 (MOLM13) | IC50 (MV4-11)
C=CC(=O)N1CCCCC(S(=O)(=O)c2ccc(N3CC(F)(CN4CCC([C@@](CN5CCC5)(c5cccc(F)c5)[C@H]5CCC[C@@H]5NC(=O)OC)CC4)C3)cc2)C1 (stereo partly drawn) [compound 215] | 1 nM | < 10 nM | < 10 nM
C=CC(=O)N1CCOC[C@@H](S(=O)(=O)c2ccc(N3CC(F)(CN4CCC([C@@](CN5CCC5)(c5cccc(F)c5)[C@H]5CCC[C@@H]5NC(=O)OC)CC4)C3)c(F)c2)C1 [compound 216] | 2 nM | < 100 nM | < 50 nM
C=CC(=O)N1CCOC[C@@H](S(=O)(=O)c2ccc(N3CC(C)(CN4CCC([C@@](CN5CCC5)(c5cccc(F)c5)[C@H]5CCC[C@@H]5NC(=O)OC)CC4)C3)c(F)c2)C1 [compound 217] | 2 nM | < 100 nM | < 10 nM
C=CC(=O)N1CCOC[C@@H](S(=O)(=O)c2ccc(N3CC(CN4CCC([C@@](CN5CCC5)(c5cccc(F)c5)[C@H]5CCC[C@@H]5NC(=O)OC)CC4)C3)c(F)c2)C1 [compound 218] | 2 nM | < 1000 nM | < 50 nM
C=CC(=O)N1CCC[C@@H](S(=O)(=O)c2ccc(N3CC(CN4CCC([C@@](CN5CCC5)(c5cccc(F)c5)[C@H]5CCC[C@@H]5NC(=O)OC)CC4)C3)c(F)c2)C1 [compound 219] | 2 nM | < 10 nM | < 10 nM
C=CC(=O)N1CCCC[C@@H](S(=O)(=O)c2ccc(N3CC(CN4CCC([C@@](CN5CCC5)(c5cccc(F)c5)[C@H]5CCC[C@@H]5NC(=O)OC)CC4)C3)cc2)C1 [compound 220] | 5 nM | < 50 nM | < 10 nM
C=CC(=O)N1CCCC[C@@H](S(=O)(=O)c2ccc(N3CC(F)(CN4CCC([C@@](CN5CCC5)(c5cccc(F)c5)[C@H]5CCC[C@@H]5NC(=O)OC)CC4)C3)cc2)C1 [compound 221] | 5 nM | < 50 nM | < 50 nM
